The target of the test is Serotonin 3 (5-HT3) receptor (Rattus norvegicus) (UniProt P35563+Q9JJ16). Put plainly: Antagonistic activity against 5-hydroxytryptamine 3 receptor as inhibition of 5-HT-induced bradycardia (von Bezold-jarisch reflex) in anesthetized rat. In kind it is functional.
Molecule `CN1C2CCC1CC(NC(=O)c1ccc(N)c(Cl)c1)C2` (stereo unspecified) showed an ID50 of 0.036 mg/kg.
For the molecule `CN1[C@@H]2CC[C@H]1C[C@@H](OC(=O)c1cc(Cl)cc(Cl)c1)C2`, the ID50 was 0.035 mg/kg.
In turn, `CN1[C@@H]2CC[C@H]1C[C@@H](OC(=O)c1c[nH]c3ccccc13)C2` gave an ID50 of 0.0014 mg/kg.
Next, `COc1cc(N)c(Cl)cc1C(=O)NC1CC2CCC(C1)N2C` (stereo unspecified): 0.0008 mg/kg.
On to `COc1cc(N)ccc1C(=O)NC1CC2CCC(C1)N2C` (stereo unspecified), for which the ID50 is 0.016 mg/kg.
The value for `CN1C2CCC1CC(n1nnc3ccc(Cl)cc3c1=O)C2` (stereo unspecified) was 0.012 mg/kg.
The value for `Nc1cc2nnn(C3CN4CCC3CC4)c(=O)c2cc1Cl` (stereo unspecified) was 0.0036 mg/kg; that for `COc1ccc(Cl)cc1C(=O)NC1CC2CCC(C1)N2C` (stereo unspecified) was 0.015 mg/kg.
Turning to `CN1C2CCC1CC(n1nnc3cc([N+](=O)[O-])c(Cl)cc3c1=O)C2` (stereo unspecified), the ID50 was 0.013 mg/kg.
As for `CN1C2CCC1CC(n1nnc3ccccc3c1=O)C2` (stereo unspecified), the ID50 is over 0.05 mg/kg.
In turn, `CN1C2CCC1CC(n1cnc3cc(N)c(Cl)cc3c1=O)C2` (stereo unspecified) gave an ID50 of 0.33 mg/kg.

Values taken from ChEMBL document CHEMBL1125070, “Benzotriazinones as "virtual ring" mimics of o-methoxybenzamides: novel and potent 5-HT3 receptor antagonists” (J Med Chem, 1990).
